Assay [1] deals with SARS-CoV-2. Description: Antiviral activity against SARS-CoV-2 Omicron BA.1 harboring NSP5 L50F/E166A/L167F mutant infected in HEK293T cells measured after 48 hrs by Nano-Glo luciferase assay. It is filed as functional, organism-based, Severe acute respiratory syndrome coronavirus 2.
In assay [2] the test system is SARS-CoV-2. In words: Antiviral activity against SARS-CoV-2 WA1 harboring NSP5 L50F/E166V mutant infected in HEK293T cells measured after 48 hrs by Nano-Glo luciferase assay. Type of assay: functional, organism-based, Severe acute respiratory syndrome coronavirus 2.
Assay [3] has as its system SARS-CoV-2. In words: Selectivity ratio of EC50 for antiviral activity against SARS-CoV-2 WA1 harboring NSP5 L50F/E166V mutant infected in HEK293T cells to EC50 for antiviral activity against wild type SARS-CoV-2 WA1 infected in HEK293T cells. Type of assay: functional.
Assay [4] concerns SARS-CoV-2. In words: Antiviral activity against SARS-CoV-2 WA1 harboring NSP5 E166V mutant infected in HEK293T cells measured after 48 hrs by Nano-Glo luciferase assay. It is filed as functional, organism-based, Severe acute respiratory syndrome coronavirus 2.
In assay [5] the test system is SARS-CoV-2. Description: Antiviral activity against SARS-CoV-2 WA1 harboring NSP5 L50F/E166A/L167F mutant infected in HEK293T cells measured after 48 hrs by Nano-Glo luciferase assay. It is filed as functional, organism-based, Severe acute respiratory syndrome coronavirus 2.
The subject of assay [6] is SARS-CoV-2. Description: Antiviral activity against SARS-CoV-2 Omicron BA.1 harboring NSP5 E166V mutant infected in HEK293T cells measured after 48 hrs by Nano-Glo luciferase assay. It is filed as functional, organism-based, Severe acute respiratory syndrome coronavirus 2.
The subject of assay [7] is SARS-CoV-2. In words: Selectivity ratio of EC50 for antiviral activity against SARS-CoV-2 WA1 harboring NSP5 E166V mutant infected in HEK293T cells to EC50 for antiviral activity against wild type SARS-CoV-2 WA1 infected in HEK293T cells. It is filed as functional.
The test system of assay [8] is SARS-CoV-2. In words: Selectivity ratio of EC50 for antiviral activity against SARS-CoV-2 WA1 harboring NSP5 L50F/E166A/L167F mutant infected in HEK293T cells to EC50 for antiviral activity against wild type SARS-CoV-2 WA1 infected in HEK293T cells. It is filed as functional.
Assay [9] deals with SARS-CoV-2. In words: Selectivity ratio of EC50 for antiviral activity against SARS-CoV-2 Omicron BA.1 harboring NSP5 L50F/E166A/L167F mutant infected in HEK293T cells to EC50 for antiviral activity against wild type SARS-CoV-2 Omicron BA.1 infected in HEK293T cells. Type of assay: functional.
Assay [10] concerns SARS-CoV-2. Description: Antiviral activity against SARS-CoV-2 Omicron BA.1 harboring NSP5 L50F/E166V mutant infected in HEK293T cells measured after 48 hrs by Nano-Glo luciferase assay. It is filed as functional, organism-based, Severe acute respiratory syndrome coronavirus 2.
In assay [11] the test system is SARS-CoV-2. In words: Selectivity ratio of EC50 for antiviral activity against SARS-CoV-2 Omicron BA.1 harboring NSP5 L50F/E166V mutant infected in HEK293T cells to EC50 for antiviral activity against wild type SARS-CoV-2 Omicron BA.1 infected in HEK293T cells. Type of assay: functional.
In assay [12] the test system is SARS-CoV-2. In words: Selectivity ratio of EC50 for antiviral activity against SARS-CoV-2 Omicron BA.1 harboring NSP5 E166V mutant infected in HEK293T cells to EC50 for antiviral activity against wild type SARS-CoV-2 Omicron BA.1 infected in HEK293T cells. It is filed as functional.
Assay [13] deals with SARS-CoV-2. Description: Antiviral activity against SARS-CoV-2 Omicron BA.1 harboring NSP5 T21I/E166V mutant infected in HEK293T cells measured after 48 hrs by Nano-Glo luciferase assay. It is filed as functional, organism-based, Severe acute respiratory syndrome coronavirus 2.
Assay [14] has as its system SARS-CoV-2. Description: Selectivity ratio of EC50 for antiviral activity against SARS-CoV-2 WA1 harboring NSP5 T21I mutant infected in HEK293T cells to EC50 for antiviral activity against wild type SARS-CoV-2 WA1 infected in HEK293T cells. It is filed as functional.
The test system of assay [15] is SARS-CoV-2. In words: Antiviral activity against SARS-CoV-2 Omicron BA.1 harboring NSP5 T21I mutant infected in HEK293T cells measured after 48 hrs by Nano-Glo luciferase assay. Type of assay: functional, organism-based, Severe acute respiratory syndrome coronavirus 2.
Assay [16] has as its system SARS-CoV-2. Description: Selectivity ratio of EC50 for antiviral activity against SARS-CoV-2 Omicron BA.1 harboring NSP5 T21I mutant infected in HEK293T cells to EC50 for antiviral activity against wild type SARS-CoV-2 Omicron BA.1 infected in HEK293T cells. Type of assay: functional.
The test system of assay [17] is SARS-CoV-2. In words: Selectivity ratio of EC50 for antiviral activity against SARS-CoV-2 WA1 harboring NSP5 T21I/E166V mutant infected in HEK293T cells to EC50 for antiviral activity against wild type SARS-CoV-2 WA1 infected in HEK293T cells. It is filed as functional.
The test system of assay [18] is SARS-CoV-2. Description: Selectivity ratio of EC50 for antiviral activity against SARS-CoV-2 Omicron BA.1 harboring NSP5 T21I/E166V mutant infected in HEK293T cells to EC50 for antiviral activity against wild type SARS-CoV-2 Omicron BA.1 infected in HEK293T cells. Type of assay: functional.
The test system of assay [19] is SARS-CoV-2. In words: Antiviral activity against SARS-CoV-2 WA1 harboring NSP5 T21I/E166V mutant infected in HEK293T cells measured after 48 hrs by Nano-Glo luciferase assay. It is filed as functional, organism-based, Severe acute respiratory syndrome coronavirus 2.
Assay [20] relates to SARS-CoV-2. In words: Antiviral activity against SARS-CoV-2 WA1 harboring NSP5 T21I mutant infected in HEK293T cells measured after 48 hrs by Nano-Glo luciferase assay. It is filed as functional, organism-based, Severe acute respiratory syndrome coronavirus 2.

In general, EC50 refers to the concentration at which the effect is half-maximal. As for `CCC(CC)COC(=O)[C@H](C)N[P@](=O)(OC[C@H]1O[C@@](C#N)(c2ccc3c(N)ncnn23)[C@H](O)[C@@H]1O)Oc1ccccc1`, the EC50 stood at 9 nM in the assay on SARS-CoV-2 [1]; 7 nM in the assay with SARS-CoV-2 [2]; 11 nM with SARS-CoV-2 [4]; 11 nM with SARS-CoV-2 [5]; 6 nM in the assay with SARS-CoV-2 [6]; 6 nM with SARS-CoV-2 [10]. The “Ratio EC50” value with SARS-CoV-2 [3] stood at 0.7; with SARS-CoV-2 [7] it was 1.1; in the assay on SARS-CoV-2 [8] it was 1.1; in the assay on SARS-CoV-2 [9] it was 0.7; in the assay on SARS-CoV-2 [11], 0.4; with SARS-CoV-2 [12], 0.4.
As for `Cc1cc(C(=O)N[C@@H](Cc2cccc3ccccc23)C(=O)N[C@@H](CC(C)C)C(=O)N[C@H](C=O)C[C@@H]2CCCNC2=O)no1`, the EC50 in the assay with SARS-CoV-2 [13] is 150 nM; with SARS-CoV-2 [1] it was 490 nM; in the assay on SARS-CoV-2 [2], 170 nM; in the assay on SARS-CoV-2 [15], 680 nM; in the assay with SARS-CoV-2 [4], 130 nM; with SARS-CoV-2 [5], 390 nM. For the same compound, the EC50 is 80 nM with SARS-CoV-2 [6], 170 nM with SARS-CoV-2 [19], 150 nM with SARS-CoV-2 [10] and 360 nM in the assay with SARS-CoV-2 [20]. The “Ratio EC50” value is 1.8 in the assay with SARS-CoV-2 [14]; 0.9 in the assay on SARS-CoV-2 [3]; 2.1 in the assay on SARS-CoV-2 [16]; 0.8 in the assay with SARS-CoV-2 [17]; 0.6 with SARS-CoV-2 [7]; 0.5 in the assay on SARS-CoV-2 [18]. Moreover, the “Ratio EC50” value in the assay with SARS-CoV-2 [8] came to 2; with SARS-CoV-2 [9], 1.5; with SARS-CoV-2 [11], 0.5; in the assay with SARS-CoV-2 [12] it was 0.2.
As for `CC(C)(C)[C@H](NC(=O)C(F)(F)F)C(=O)N1C[C@H]2[C@@H]([C@H]1C(=O)N[C@H](C#N)C[C@@H]1CCNC1=O)C2(C)C`, the EC50 in the assay with SARS-CoV-2 [13] is 12000 nM; in the assay with SARS-CoV-2 [1], 2900 nM; in the assay on SARS-CoV-2 [2] it was 3900 nM; in the assay on SARS-CoV-2 [15] it was 280 nM; in the assay on SARS-CoV-2 [4], 4500 nM; in the assay on SARS-CoV-2 [5], 610 nM. Moreover, the EC50 turned out to be 7300 nM in the assay with SARS-CoV-2 [6], 8500 nM with SARS-CoV-2 [19], 8600 nM with SARS-CoV-2 [10] and 80 nM with SARS-CoV-2 [20].

(Values after ChEMBL document CHEMBL5505997, “Synthesis and biological evaluation of novel peptidomimetic inhibitors of the coronavirus 3C-like protease” (Eur J Med Chem, 2024).)
